# Results published in Sander's compilation of Henry's law constants.
# Columns and labels:
# [1] = Henry solubility constant Hcp at 295 K (mol/(m3 Pa))
# [2] = Henry solubility constant Hcp at 310 K (mol/(m3 Pa))
# [3] = Henry solubility constant Hcp at 296 K (mol/(m3 Pa))
# [4] = Henry solubility constant Hcp at 298.15 K (mol/(m3 Pa))
# [5] = Henry solubility constant Hcp at 293 K (mol/(m3 Pa))
# [6] = Henry solubility constant Hcp at 291 K (mol/(m3 Pa)); settings: reference: Treves et al. (2000)
# [7] = Henry solubility constant Hcp at 288 K (mol/(m3 Pa))
# [8] = Henry solubility constant Hcp at 278 K (mol/(m3 Pa))
# [9] = Henry solubility constant Hcp at 303 K (mol/(m3 Pa)); settings: reference: Ruetschi and Amlie (1966)
# [10] = reference: de Wolf and Lieder (1998)
# [11] = reference: Bissonette et al. (1990)
# [12] = reference: Hartkopf and Karger (1973)
# [13] = reference: Mackay et al. (1979)
# [14] = reference: Ramachandran et al. (1996)
# [15] = reference: Warner et al. (1980)
# [16] = reference: Yurteri et al. (1987)
smiles,measurement,setting,value
Cc1ccccc1 [methylbenzene],Henry solubility constant Hcp at 295 K,[1]; [10],0.002
same,Henry solubility constant Hcp at 310 K,[2]; reference: McIntosh and Heffron (2000),0.00085
same,Henry solubility constant Hcp at 296 K,[3]; reference: Anderson (1992),0.0015
same,Henry solubility constant Hcp at 296 K,[3]; reference: David et al. (2000),0.0015
same,Henry solubility constant Hcp at 296 K,[3]; reference: Miller and Stuart (2000),0.0016
same,Henry solubility constant Hcp,[4]; reference: Allen et al. (1998),0.0015
same,Henry solubility constant Hcp,[4]; reference: Bakierowska and Trzeszczyński (2003),0.0017
same,Henry solubility constant Hcp,[4]; reference: Bierwagen and Keller (2001),0.0017
same,Henry solubility constant Hcp,[4]; [11],0.0014
same,Henry solubility constant Hcp,[4]; reference: Bobadilla et al. (2003),0.0021
same,Henry solubility constant Hcp,[4]; reference: Brown and Wasik (1974),0.0016
same,Henry solubility constant Hcp,[4]; reference: Ervin et al. (1980),0.0015
same,Henry solubility constant Hcp,[4]; reference: Ettre et al. (1993),0.0015
same,Henry solubility constant Hcp,[4]; reference: Garbarini and Lion (1985),0.0015
same,Henry solubility constant Hcp,[4]; reference: Görgényi et al. (2002),0.0015
same,Henry solubility constant Hcp,[4]; [12],0.002
same,Henry solubility constant Hcp,[4]; reference: Keeley et al. (1988),0.0016
same,Henry solubility constant Hcp,[4]; reference: Kish et al. (2013),0.0015
same,Henry solubility constant Hcp,[4]; reference: Kutsuna and Kaneyasu (2021),0.0015
same,Henry solubility constant Hcp,[4]; reference: Lau et al. (2010),0.0013
same,Henry solubility constant Hcp,[4]; reference: Lee et al. (2013),0.0017
same,Henry solubility constant Hcp,[4]; reference: Lei et al. (2004),0.0014
same,Henry solubility constant Hcp,[4]; reference: Li et al. (2008),0.0015
same,Henry solubility constant Hcp,[4]; reference: Lin and Chou (2006),0.0015
same,Henry solubility constant Hcp,[4]; reference: Lodge and Danso (2007),0.0014
same,Henry solubility constant Hcp,[4]; [13],0.0015
same,Henry solubility constant Hcp,[4]; reference: Nielsen et al. (1994),0.0016
same,Henry solubility constant Hcp,[4]; reference: Park et al. (1997),0.0013
same,Henry solubility constant Hcp,[4]; reference: Peng and Wan (1997),0.0017
same,Henry solubility constant Hcp,[4]; reference: Peng and Wan (1998),0.0021
same,Henry solubility constant Hcp,[4]; reference: Perlinger et al. (1993),0.0015
same,Henry solubility constant Hcp,[4]; [14],0.0015
same,Henry solubility constant Hcp,[4]; reference: Robbins et al. (1993),0.0015
same,Henry solubility constant Hcp,[4]; reference: Sanemasa et al. (1981),0.0016
same,Henry solubility constant Hcp,[4]; reference: Schoene and Steinhanses (1985),0.0012
same,Henry solubility constant Hcp,[4]; reference: Sieg et al. (2009),0.0015
same,Henry solubility constant Hcp,[4]; reference: Tsibul’skii et al. (1979),0.0015
same,Henry solubility constant Hcp,[4]; reference: Turner et al. (1996),0.0014
same,Henry solubility constant Hcp,[4]; reference: Vane and Giroux (2000),0.0019
same,Henry solubility constant Hcp,[4]; reference: Vitenberg et al. (1975),0.0019
same,Henry solubility constant Hcp,[4]; [15],0.0017
same,Henry solubility constant Hcp,[4]; reference: Wasik and Tsang (1970),0.0017
same,Henry solubility constant Hcp at 293 K,[5]; reference: Yu (1992),0.0037
same,Henry solubility constant Hcp at 293 K,[5]; [16],0.0017
CCC(O)CO[N+](=O)[O-] (stereo unspecified) [1-nitrooxy-2-butanol],Henry solubility constant Hcp at 291 K,[6],89
[O]N=O [nitrogen dioxide],Henry solubility constant Hcp at 288 K,[7]; reference: Komiyama and Inoue (1980),0.00023
same,Henry solubility constant Hcp at 295 K,[1]; reference: Lee and Schwartz (1981),6.9e-05
same,Henry solubility constant Hcp,[4]; reference: Cheung et al. (2000),0.00012
CCOO [ethyl hydroperoxide],Henry solubility constant Hcp,[4]; reference: O’Sullivan et al. (1996),3.3
same,Henry solubility constant Hcp at 278 K,[8]; reference: Sauer (1997),11
CC(O)CCO[N+](=O)[O-] (stereo unspecified) [4-nitrooxy-2-butanol],Henry solubility constant Hcp at 291 K,[6],130
O=[N+]([O-])OCCCCO [4-nitrooxy-1-butanol],Henry solubility constant Hcp at 291 K,[6],290
"Clc1cccc(Cl)c1 [1,3-dichlorobenzene]",Henry solubility constant Hcp at 295 K,[1]; [10],0.0037
same,Henry solubility constant Hcp,[4]; reference: Li et al. (2008),0.0029
same,Henry solubility constant Hcp,[4]; [15],0.0038
[HH] [hydrogen],Henry solubility constant Hcp at 310 K,[2]; reference: Longo et al. (1970),7.2e-06
same,Henry solubility constant Hcp at 310 K,[2]; reference: Power and Stegall (1970),7.2e-06
same,Henry solubility constant Hcp,[4]; reference: Bohr and Bock (1891),7.5e-06
same,Henry solubility constant Hcp,[4]; reference: Braun (1900),7.7e-06
same,Henry solubility constant Hcp,[4]; reference: Bunsen (1855a),8.5e-06
same,Henry solubility constant Hcp,[4]; reference: Crozier and Yamamoto (1974),7.7e-06
same,Henry solubility constant Hcp,[4]; reference: Geffcken (1904),7.8e-06
same,Henry solubility constant Hcp,[4]; reference: Gordon et al. (1977),7.7e-06
same,Henry solubility constant Hcp,[4]; reference: Morrison and Billett (1952),7.8e-06
same,Henry solubility constant Hcp,[4]; reference: Schmidt (1979),7.8e-06
same,Henry solubility constant Hcp,[4]; reference: Timofejew (1890),7.8e-06
same,Henry solubility constant Hcp,[4]; reference: Winkler (1891a),7.7e-06
same,Henry solubility constant Hcp at 303 K,[9],7.5e-06
BrBr [bromine (molecular)],Henry solubility constant Hcp at 288 K,[7]; reference: Jones (1911),0.014
same,Henry solubility constant Hcp,[4]; reference: Hill et al. (1968),0.0068
same,Henry solubility constant Hcp,[4]; reference: Kelley and Tartar (1956),0.007
same,Henry solubility constant Hcp,[4]; reference: Winkler (1899),0.0079
same,Henry solubility constant Hcp,[4]; reference: Winkler (1906),0.0078
same,Henry solubility constant Hcp at 293 K,[5]; reference: Jenkins and King (1965),0.0096
O=C(Cl)C(Cl)(Cl)Cl [trichloroacetylchloride],Henry solubility constant Hcp,[4]; reference: George et al. (1994a),0.02
same,Henry solubility constant Hcp,[4]; reference: Mirabel et al. (1996),0.02
same,Henry solubility constant Hcp at 278 K,[8]; reference: De Bruyn et al. (1995a),0.02
CCCCC(CC)COC(=O)CCCCC(=O)OCC(CC)CCCC (stereo unspecified) [di-(2-ethylhexyl)-adipate],Henry solubility constant Hcp at 295 K,[1]; reference: Felder et al. (1986),23
O=COO [methanoic peroxyacid],Henry solubility constant Hcp at 278 K,[8]; reference: Sauer (1997),29
Brc1ccccc1 [bromobenzene],Henry solubility constant Hcp at 295 K,[1]; [10],0.005
same,Henry solubility constant Hcp,[4]; reference: Lau et al. (2010),0.0039
Clc1ccccc1 [chlorobenzene],Henry solubility constant Hcp at 295 K,[1]; [10],0.0034
same,Henry solubility constant Hcp,[4]; [11],0.0024
same,Henry solubility constant Hcp,[4]; reference: Cooling et al. (1992),0.003
same,Henry solubility constant Hcp,[4]; reference: Ervin et al. (1980),0.0029
same,Henry solubility constant Hcp,[4]; reference: Ettre et al. (1993),0.0031
same,Henry solubility constant Hcp,[4]; [12],0.0028
same,Henry solubility constant Hcp,[4]; reference: Khalfaoui and Newsham (1994b),0.003
same,Henry solubility constant Hcp,[4]; reference: Lau et al. (2010),0.0017
same,Henry solubility constant Hcp,[4]; reference: Lei et al. (2004),0.0015
same,Henry solubility constant Hcp,[4]; reference: Li et al. (2008),0.0024
same,Henry solubility constant Hcp,[4]; [13],0.0026
same,Henry solubility constant Hcp,[4]; reference: Park et al. (1997),0.0019
same,Henry solubility constant Hcp,[4]; [14],0.0029
same,Henry solubility constant Hcp,[4]; [15],0.0025
same,Henry solubility constant Hcp at 293 K,[5]; [16],0.0031
